From patent US10889616B2, “Cytotoxic tubulysin compounds for conjugation” (priority 2014, dated 2021) come the findings set out here.

Holding throughout (type): cell-based
In assay [1] the test system is MCF7. Kind of assay: cytotoxic activity, IC50 against MCF7 cells. The conditions noted are these: Homo sapiens; MCF7 / MCF-7 cells.
Assay [2] concerns SK-N-MC. Kind of assay: cytotoxic activity, IC50 against SK-N-MC cells. The conditions noted are these: Homo sapiens.
Assay [3] has as its system BT474. Kind of assay: cytotoxic activity, IC50 against BT474 cells. Particulars: Homo sapiens; BT474 / BT-474 cells.
Assay [4] relates to MDA-MB-468. Kind of assay: cytotoxic activity, IC50 against MDA-MB-468 cells. The conditions noted are these: Homo sapiens.
The test system of assay [5] is T47D. Kind of assay: cytotoxic activity, IC50 against T47D cells. The conditions noted are these: Homo sapiens; T47D / T-47D cells.
Assay [6] is described as follows: IC50 as ADC with Herceptin and DAR 2. Particulars: compound conjugated to Herceptin, DAR 2; cell line not given.
Assay [7] has as its system HT29. Kind of assay: cytotoxic activity, IC50 against HT29 cells. Particulars: Homo sapiens; HT29 / HT-29 cells.
The subject of assay [8] is SKBR3. Kind of assay: cytotoxic activity, IC50 against SKBR3 cells. The conditions noted are these: Homo sapiens, SK-BR-3.
The test system of assay [9] is HEK293. Kind of assay: cytotoxic activity, IC50 against HEK293 cells. The conditions noted are these: Homo sapiens.
In assay [10] the test system is HT1080. Kind of assay: cytotoxic activity, IC50 against HT1080 cells. The conditions noted are these: Homo sapiens, HT-1080.
Assay [11] concerns NCl-H1299. Kind of assay: cytotoxic activity, IC50 against NCl-H1299 cells.
The test system of assay [12] is A2780. Kind of assay: cytotoxic activity, IC50 against A2780 cells. The conditions noted are these: Homo sapiens.

Each structure is given as a SMILES string. Starred links: 1 amine or outer side, 2 acyl side, 3 side chain; linkers in the order of their positions; H or OH if unused. Non-standard residues stand in square brackets, D forms with d. Residues, ends and D or L forms follow the SMILES beside them. *: point of attachment. NPrTuv(OPr) = CCCO[C@H](C[C@H](C(C)C)N(CCC)[*:1])c1nc(C(=O)[*:2])cs1; Hexanoyl(6-maleimido) = O=C1C=CC(=O)N1CCCCCC(=O)*; X1 = C[C@@H](C[C@H](Cc1ccccc1)N*)C(=O)O; PABC = O=C(OCc1ccc(N[*:1])cc1)[*:2]; NMeI = CC[C@H](C)[C@H](NC)C(=O)O; Cit = NC(=O)NCCC[C@H](N)C(=O)O

For `CCCO[C@H](C[C@H](C(C)C)N(CCC)C(=O)[C@@H](NC(=O)[C@@H](NC)[C@@H](C)CC)[C@@H](C)CC)c1nc(C(=O)N[C@@H](Cc2ccccc2)C[C@H](C)C(=O)O)cs1` [TAM491], the half-inhibitory concentration (IC50) worked out at 1.77 nM in assay [1], 4.57 nM in assay [2], 1.84 nM in assay [3] and 2.68 nM in [4].
For `CCCO[C@H](C[C@H](C(C)C)N(CCO)C(=O)[C@@H](NC(=O)[C@H]1CCCCN1C)[C@@H](C)CC)c1nc(C(=O)N[C@@H](Cc2ccc(O)cc2)C[C@H](C)C(=O)O)cs1` [TAM608] the same measures were 4.06 nM, 1.54 nM, 1.69 nM and 2.24 nM.
Take `CCCO[C@H](C[C@H](C(C)C)N(CCC)C(=O)[C@@H](NC(=O)[C@H](CC(C)C)NC)[C@@H](C)CC)c1nc(C(=O)N[C@@H](Cc2ccccc2)C[C@H](C)C(=O)OC)cs1` [TAM496]: the IC50 amounted to 103 nM in assay [1], 300 nM in [2], 95.2 nM in [3] and 214 nM in assay [4].
For `CCCO[C@H](C[C@H](C(C)C)N(CCC)C(=O)[C@@H](NC(=O)[C@@H](NC)[C@@H](C)CC)[C@@H](C)CC)c1nc(C(=O)N[C@@H](Cc2ccc(O)cc2)C[C@H](C)C(=O)O)cs1` [TAM599], the IC50 in [5] worked out at 1.22 nM; in assay [1], 0.65 nM; in [2] it was 0.77 nM; in assay [4] it was 0.64 nM.
Consider `CCCO[C@H](C[C@H](C(C)C)N(CCC)C(=O)[C@@H](NC(=O)[C@H]1CCCCN1C)[C@@H](C)CC)c1nc(C(=O)N[C@@H](Cc2ccc(OCCCCN)cc2)C[C@H](C)C(=O)O)cs1` [TAM486], for which the IC50 came out at 142 nM in [5]; 57.5 nM in assay [1]; 48.5 nM in assay [2]; 50.9 nM in assay [3]; 81.5 nM in assay [4].
As to `CCCO[C@H](C[C@H](C(C)C)N(CCC)C(=O)[C@@H](NC(=O)[C@H]1CCCCN1C)[C@@H](C)CC)c1nc(C(=O)N[C@@H](Cc2ccc(O)cc2)C[C@H](C)C(=O)NCCOCCOCCOCCOCCOCCOCCN)cs1` [TAM597], the IC50 in [6] was found to be 0.172 nM.
Regarding `CCCO[C@H](C[C@H](C(C)C)N(CCC)C(=O)[C@@H](NC(=O)[C@H]1CCCCN1C)[C@@H](C)CC)c1nc(C(=O)N[C@@H](Cc2ccccc2)C[C@H](C)C(=O)NNC(=O)OCCOCCN)cs1` [TAM523], the IC50 in assay [1] worked out at 92.1 nM; in [2], 150 nM; in assay [3] it was 65 nM; in [4], 221 nM.
Take `CCCO[C@H](C[C@H](C(C)C)N(CCC)C(=O)[C@@H](NC(=O)[C@H]([C@@H](C)CC)N(C)C)[C@@H](C)CC)c1nc(C(=O)N[C@@H](Cc2ccccc2)C[C@H](C)C(=O)OC)cs1` [TAM521]: the half-maximal inhibitory concentration (IC50) was found to be 6.74 nM in assay [1], 15.3 nM in assay [2], 4.07 nM in [3] and 20 nM in [4].
For the compound `CCCO[C@H](C[C@H](C(C)C)N(CCC)C(=O)[C@@H](NC(=O)[C@H]1CCCCN1)[C@@H](C)CC)c1nc(C(=O)N[C@@H](Cc2ccc(O)cc2)C[C@H](C)C(=O)O)cs1` [TAM334], the half-maximal inhibitory concentration (IC50) worked out at 12.3 nM in assay [7], 5.4 nM in assay [8] and 5.2 nM in assay [3].
Take `CCCO[C@H](C[C@H](C(C)C)N(CCC)C(=O)[C@@H](NC(=O)[C@H]1CCCCN1C)[C@@H](C)CC)c1nc(C(=O)N[C@@H](Cc2ccc(OCCNC)cc2)C[C@H](C)C(=O)O)cs1` [TAM365]: the IC50 is 0.99 nM in assay [9], 0.92 nM in assay [2] and 3.41 nM in assay [4].
On to `CCCO[C@H](C[C@H](C(C)C)N(CCC)C(=O)[C@@H](NC(=O)[C@H]1CCCCN1C)[C@@H](C)CC)c1nc(C(=O)N[C@@H](Cc2ccc(O)cc2)C[C@H](C)C(=O)NNC(=O)OCCOCCOCCOCCNC(=O)CCCCCN2C(=O)C=CC2=O)cs1` [TAM552], for which the half-maximal inhibitory concentration (IC50) in assay [10] was 10 nM.
As to `CCCO[C@H](C[C@H](C(C)C)N(CCC)C(=O)[C@@H](NC(=O)[C@H]([C@@H](C)CC)N(C)C)[C@@H](C)CC)c1nc(C(=O)N[C@@H](Cc2ccccc2)C[C@H](C)C(=O)O)cs1` [TAM522], the IC50 in assay [2] is 1.54 nM; in assay [3], 0.98 nM; in [4], 2 nM.
Consider `CC[C@H](C)[C@H](NC(=O)[C@H]1CCCCN1C)C(=O)N(COC(=O)CC(C)C)[C@H](C[C@@H](OC(C)=O)c1nc(C(=O)N[C@@H](Cc2ccc(O)cc2)C[C@H](C)C(=O)NCCS)cs1)C(C)C` [TAM674], for which the IC50 was determined as 19 nM in assay [11], 4.4 nM in assay [7] and 8.7 nM in [12].
Consider `CCCO[C@H](C[C@H](C(C)C)N(CCC)C(=O)[C@@H](NC(=O)[C@H](CC(C)C)NC)[C@@H](C)CC)c1nc(C(=O)N[C@@H](Cc2ccccc2)C[C@H](C)C(=O)O)cs1` [TAM497], for which the concentration for half-maximal inhibition (IC50) in [1] was found to be 64.3 nM; in assay [2], 83.3 nM; in [3] it was 50 nM; in assay [4] it was 85.6 nM.
On to `CCCO[C@H](C[C@H](C(C)C)N(CCC)C(=O)[C@@H](NC(=O)[C@H]1CCCCN1C)[C@@H](C)CC)c1nc(C(=O)N[C@@H](Cc2ccccc2)C[C@H](C)C(=O)NN)cs1` [TPM320], for which the 50% inhibitory concentration (IC50) in assay [2] was found to be 16 nM; in assay [3], 11 nM.
Turning to `CCCO[C@H](C[C@H](C(C)C)N(CCC)C(=O)[C@@H](NC(=O)[C@H](NC)[C@@H](C)CC)[C@@H](C)CC)c1nc(C(=O)N[C@@H](Cc2ccc(O)cc2)C[C@H](C)C(=O)OC)cs1` [TAM609], the half-maximal inhibitory concentration (IC50) in assay [1] amounted to 2.17 nM; in assay [2], 2.12 nM; in [3], 0.5 nM; in assay [4] it was 3.32 nM.
For the compound `CCCO[C@H](C[C@H](C(C)C)N(CCC)C(=O)[C@@H](NC(=O)[C@H](NC)[C@@H](C)CC)[C@@H](C)CC)c1nc(C(=O)N[C@@H](Cc2ccc(O)cc2)C[C@H](C)C(=O)O)cs1` [TAM610], the 50% inhibitory concentration (IC50) in [1] came to 0.2 nM; in assay [2] it was 0.1 nM; in assay [3], 0.1 nM; in assay [4], 0.3 nM.
For `CCCO[C@H](C[C@H](C(C)C)N(CCC)C(=O)[C@@H](NC(=O)[C@@H](NC)[C@@H](C)CC)[C@@H](C)CC)c1nc(C(=O)N[C@@H](Cc2ccc(O)cc2)C[C@H](C)C(=O)OC)cs1` [TAM598], the IC50 in assay [5] is 8.17 nM; in [1] it was 4.39 nM; in [2], 6.74 nM; in [4] it was 5.15 nM.
In the case of `CCCO[C@H](C[C@H](C(C)C)N(CCC)C(=O)[C@@H](NC(=O)[C@H]1CCCCN1C)[C@@H](C)CC)c1nc(C(=O)N[C@@H](Cc2ccc(O)cc2)C[C@H](C)C(=O)NNC(=O)OCCOCCN)cs1` [TAM428], the IC50 in [6] amounted to 0.219 nM; in assay [5], 32 nM; in assay [1] it was 20.6 nM; in assay [4], 16.8 nM.
Regarding `CCCO[C@H](C[C@H](C(C)C)N(CCC)C(=O)[C@@H](NC(=O)[C@H]1CCCCN1C)[C@@H](C)CC)c1nc(C(=O)N[C@@H](Cc2ccc(O)cc2)C[C@H](C)C(=O)NNC(=O)OCCOCCOCCN)cs1` [TAM375], the results for the concentration for half-maximal inhibition (IC50) in assay [8], in assay [9] and in assay [4] were 18.8 nM, 34.6 nM and 25.8 nM, respectively.
In assay [10], `CCCO[C@H](C[C@H](C(C)C)N(CCC)C(=O)[C@@H](NC(=O)[C@H]([C@@H](C)CC)N(C)C(=O)OCc1ccc(NC(=O)[C@H](CCCNC(N)=O)NC(=O)[C@@H](NC(=O)CCCCCN2C(=O)C=CC2=O)C(C)C)cc1)[C@@H](C)CC)c1nc(C(=O)N[C@@H](Cc2ccccc2)C[C@H](C)C(=O)O)cs1` [TAM551] ({Hexanoyl(6-maleimido)}-V[Cit][PABC][NMeI]I[NPrTuv(OPr)]-X1) showed a concentration for half-maximal inhibition (IC50) of 90 nM.
For the compound `CCCO[C@H](C[C@H](C(C)C)N(CCC)C(=O)[C@@H](NC(=O)[C@H]1CCCCN1C)[C@@H](C)CC)c1nc(C(=O)N[C@@H](Cc2ccc(O)cc2)C[C@H](C)C(=O)NNC(=O)OCCOCCN=[N+]=[N-])cs1` [TAM426], the half-inhibitory concentration (IC50) stood at 2 nM in assay [5], 1.33 nM in assay [1] and 1.71 nM in [4].
On to `CCCO[C@H](C[C@H](C(C)C)N(CCC)C(=O)[C@@H](NC(=O)[C@H]1CCCCN1C)[C@@H](C)CC)c1nc(C(=O)N[C@@H](Cc2ccc(OC(=O)NCCOCCOCCN)cc2)C[C@H](C)C(=O)O)cs1` [TAM371], for which the IC50 is 0.1 nM in [9], < 0.01 nM in assay [2] and 0.13 nM in [4].
